# Experimental data as given in patent US20200131669A1, “CYCLIC PEPTIDE COMPOUND HAVING HIGH MEMBRANE PERMEABILITY, AND LIBRARY CONTAINING SAME” (Chugai Seiyaku Kabushiki Kaisha, priority 2017, published 2020).
# Positions of bridges follow the written chain, without caps; N, C: chain ends. Non-standard residues stand in square brackets, D forms with d. Residues, ends and D or L forms follow the SMILES beside them. *: point of attachment. hNle(7,7-F2) = N[C@@H](CCCCC(F)F)C(=O)O; NMeF = CN[C@@H](Cc1ccccc1)C(=O)O; NMeI = CC[C@H](C)[C@H](NC)C(=O)O; NMeL = CN[C@@H](CC(C)C)C(=O)O; NMeV = CN[C@H](C(=O)O)C(C)C; NMeA = CN[C@@H](C)C(=O)O; Piperidide = C1CCN(*)CC1; Isopentyl = CC(C)CC*; NPrGly = CCCNCC(=O)O; Sar = CNCC(=O)O; tBu = CC(C)(C)*
# Test: Caco-2 membrane permeability, improved method as used in the following Examples (96-well, 20 to 24 h preincubation)
# Assay type: in vitro ADME
# Settings: human, Caco-2, Caco-2
# Procedure, shortened: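 Caco-2 monolayers were grown three weeks and preincubated 20–24 h at 37 °C with compound in DMEM+FaSSIF (1% DMSO) apically. The assay then used compound in FaSSIF/HBSS (1% DMSO, pH 6.0) apically and HBSS with 4% BSA (pH 7.4) basally. Basal samples were taken at 180 min for LC/MS, and Papp (cm/sec) was calculated.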
row,SMILES,Papp A→B at 180 min [×10⁻⁶ cm/s]
1,"CC[C@H](C)[C@H]1C(=O)N[C@@H]([C@@H](C)O)C(=O)N(C)CC(=O)N(C)[C@@H](CC(C)C)C(=O)N[C@H](C(=O)N2CCCCC2)CC(=O)N(C)[C@@H](C)C(=O)N[C@@H](CCCCC(F)F)C(=O)N(C)[C@@H](CC(C)C)C(=O)N(C)[C@@H](Cc2ccccc2)C(=O)N[C@@H](C(C)C)C(=O)N(C)[C@@H](Cc2ccccc2)C(=O)N1C [pd334] ([NMeA][hNle(7,7-F2)][NMeL][NMeF]V[NMeF][NMeI]T[Sar][NMeL]D-Piperidide; lactam N-11)",2.4
2,"CC[C@H](C)[C@H]1C(=O)N[C@@H]([C@@H](C)O)C(=O)N(C)CC(=O)N(C)[C@@H](CC(C)C)C(=O)N[C@H](C(=O)N2CCCCC2)CC(=O)N(C)[C@@H](C)C(=O)N[C@@H](CC(C)C)C(=O)N(C)[C@@H](CC(C)C)C(=O)N(C)[C@@H](Cc2ccccc2)C(=O)N[C@@H](CCCCC(F)F)C(=O)N(C)[C@@H](Cc2ccccc2)C(=O)N1C [pd335] ([NMeA]L[NMeL][NMeF][hNle(7,7-F2)][NMeF][NMeI]T[Sar][NMeL]D-Piperidide; lactam N-11)",2
3,"CCCN1CC(=O)N(C)[C@@H](Cc2ccccc2)C(=O)N[C@@H](CCCCC(F)F)C(=O)N(C)[C@@H](CC(C)C)C(=O)N[C@@H]([C@@H](C)O)C(=O)N(C)CC(=O)N(C)[C@@H](Cc2ccccc2)C(=O)N(C)[C@@H](CC(C)C)C(=O)N[C@@H](COC(C)(C)C)C(=O)N(C)[C@@H](C(C)C)C(=O)N[C@H](C(=O)N2CCCCC2)CC1=O [pd336] ([NPrGly][NMeF][hNle(7,7-F2)][NMeL]T[Sar][NMeF][NMeL]S(tBu)[NMeV]D-Piperidide; lactam N-11)",2.5
4,"CC(C)CCOC[C@@H]1NC(=O)[C@H](CC(C)C)N(C)C(=O)[C@H](Cc2ccccc2)N(C)C(=O)CN(C)C(=O)[C@H]([C@@H](C)O)NC(=O)[C@H](CC(C)C)N(C)C(=O)[C@H](CCCCC(F)F)NC(=O)[C@H](Cc2ccccc2)N(C)C(=O)CN(C)C(=O)C[C@@H](C(=O)N2CCCCC2)NC(=O)[C@H](CC(C)C)N(C)C1=O [pd338] ([Sar][NMeF][hNle(7,7-F2)][NMeL]T[Sar][NMeF][NMeL]S(Isopentyl)[NMeL]D-Piperidide; lactam N-11)",1.8
5,CC(C)C[C@H]1C(=O)N[C@@H](COC(C)(C)C)C(=O)N(C)[C@@H](Cc2ccccc2)C(=O)N(C)[C@@H](C(C)C)C(=O)N[C@H](C(=O)N2CCCCC2)CC(=O)N[C@H](C(C)C)C(=O)N(C)[C@@H](CC(C)C)C(=O)N[C@@H](COc2ccccc2Cl)C(=O)N(C)[C@@H](C)C(=O)N[C@@H]([C@@H](C)O)C(=O)N(C)CC(=O)N1C [pd339],2.6
6,CC(C)C[C@H]1C(=O)N[C@@H](COC(C)(C)C)C(=O)N(C)[C@@H](C)C(=O)N(C)[C@@H](CC(C)C)C(=O)N[C@H](C(=O)N2CCCCC2)CC(=O)N[C@H](C)C(=O)N(C)[C@@H](Cc2ccccc2)C(=O)N[C@@H](COc2ccccc2Cl)C(=O)N(C)[C@@H](CC(C)C)C(=O)N[C@@H]([C@@H](C)O)C(=O)N(C)CC(=O)N1C [pd340],1.2
7,CC[C@H](C)[C@H]1C(=O)N[C@@H]([C@@H](C)O)C(=O)N(C)CC(=O)N(C)[C@@H](CC(C)C)C(=O)N[C@H](C(=O)N2CCCCC2)CC(=O)N(C)[C@@H](C)C(=O)N[C@@H](CC(C)C)C(=O)N(C)[C@@H](CC(C)C)C(=O)N(C)[C@@H](C)C(=O)N[C@@H](COc2ccccc2Cl)C(=O)N(C)[C@@H](Cc2ccccc2)C(=O)N1C [pd341],1.4
